Type in all cases: cell-based
The subject of data set [1] is human JNK2 mRNA. The data set is described as follows: Northern analysis, human JNK2 mRNA in Jurkat cells (electroporation, dose response). The conditions noted are these: 1, 5 or 20 uM. As to the method: Jurkat cells were routinely cultured in RPMI Medium 1640 (Gibco/Life Technologies, Gaithersburg, Md.) supplemented with 20% fetal calf serum (Gibco/Life Technologies, Gaithersburg, Md.). Cells were routinely passaged by aspirating media that contained excess cells and replenishing with new media.
For electroporation, cells were diluted to 28×10^6 cells/mL and placed into 1 mm electroporation cuvettes. Electroporation is performed by treating with 1-20 μM oligonucleotide, at 160 Volts for 6 msec. The entire electroporated samples are then placed into 5 mL of 10% FBS/RPMI Medium 1640 in 100 mm plates. Plates are then left overnight at 37° C./5% CO2.
Each sample is then transferred to 15 mL conical tubes and spun down at 1200 rpm for 5 minutes followed by aspiration of the supernatant. Cells are then suspended in 5 mL PBS followed by a second centrifugation at 1200 rpm for 5 minutes followed by aspiration of the supernatant. Cells are then washed and lysed. Following the lysis step, total cellular RNA is then isolated using the RNEASY kit (Qiagen, Santa Clarita, Calif.) as described in other examples herein.
In accordance with the present invention, Jurkat cells were treated by electroporation with 1, 5 or 20 uM ISIS 101759 or the control oligonucleotide and mRNA levels of human JNK2 were quantitated by Northern analysis.

Data set [2] relates to human JNK2 mRNA. The data set is described as follows: Northern analysis, human JNK2 mRNA in HuVEC cells (time course). The conditions noted are these: 100 nM; 0-72 hours. The method, then:
The human umbilical vein endothilial cell line HuVEC was obtained from Clonetics (Clonetics Corporation Walkersville, Md.). HuVEC cells were routinely cultured in EBM (Clonetics Corporation Walkersville, Md.) supplemented with SingleQuots supplements (Clonetics Corporation, Walkersville, Md.). […] Cells were seeded into 100 mm dishes and incubated overnight at 37° C./5% CO2. (Falcon-Primaria #3872).
(§1) When cells reached 70% confluency, they were treated with oligonucleotide. For cells grown in 10 cm dishes, cells were washed once with 5 ml PBS and then treated with 5 ml of OPTI-MEM-1 containing 3 ul LIPOFECTIN (Invitrogen Corporation, Carlsbad, Calif.)/100 nM oligonucleotide/ml OPTI-MEM-1. For other oligonucleotide concentrations the oligonucleotide/Lipofectin ration was held constant. […] Cells were harvested 16-24 hours after oligonucleotide treatment.
In accordance with the present invention, HuVEC cells were treated with 100 nM ISIS 101759 or the control oligonucleotide and mRNA levels of human JNK2 were monitored over a time-course of 0-72 hours and quantitated by Northern analysis.

Data set [3] concerns human JNK2 mRNA. The data set is described as follows: Northern analysis, human JNK2 mRNA in HeLa cells (dose response). To be noted: 10, 50 or 200 nM. The method, then: The human cervix epithelial adenocarcinoma cell line HeLa was obtained from the American Type Culture Collection (Manassas, Va.). HeLa cells were routinely cultured in Minimum essential medium (Eagle) with 2 mM L-glutamine and Earle's BSS adjusted to contain 1.5 g/L sodium bicarbonate, 0.1 mM non-essential amino acids, and 1.0 mM sodium pyruvate, 90%; fetal bovine serum, 10% at a temperature of 37° C. Cells were seeded into 100 mm dishes and incubated overnight at 37° C./5% CO2
as §1
In accordance with the present invention, HeLa cells were treated with 10, 50 or 200 nM ISIS 101759 or the control oligonucleotide and mRNA levels of human JNK2 were quantitated by Northern analysis.

e = 2'-O-(2-methoxyethyl) (MOE); d = 2'-deoxy (DNA)

One substance from US20120214736A1, “COMPOSITIONS AND METHODS FOR THE MODULATION OF JNK PROTEINS” (Isis Pharmaceuticals, Inc., priority 2006, published 2012) can be followed below.

For “GsCsTsCsAsGsTsGsGsAsCsAsTsGsGsAsTsGsAsG (GCTCAGTGGACATGGATGAG; sugars from the 5' end e5 d10 e5, all phosphorothioate, methylation of C not given here) [ISIS 101759]”, the “expression of human JNK2 in Jurkat cells” value in the data set on human JNK2 mRNA [1] is reported as “capable of reducing the expression of human JNK2 in human Jurkat cells in a dose-dependent manner”. In addition, the “expression of human JNK2 in HuVEC cells” value in the data set with human JNK2 mRNA [2] is listed as “capable of reducing the expression of human JNK2”. The “expression of human JNK2 in HeLa cells” value in the data set with human JNK2 mRNA [3] is recorded as “capable of reducing the expression of human JNK2 in human HeLa cells in a dose-dependent manner”.
